Key:
HCT116 (colon) = experiment: In vitro cytotoxic activity MTT assay, HCT116; assay type: cell-based; conditions: Homo sapiens, HCT-116; cells exposed for 96 hours; 50% inhibition of cell proliferation; read-out: Cytotoxicity activity IC50, HCT116 (colon)
Protocol: (§1) Compounds 1-16 were screened for their in vitro cytotoxic activity utilizing a 3-(4,5-dimethyl-thiazol-2-yl)-2,5-diphenyltetrazolium bromide (MTT) assay against selected cancer human cell lines consisting of PC3 (prostate), HCT116 (colon), A375 (melanoma), H1299 (lung), MIAPaCa-2 (pancreas), HL60 (leukemia), MCF7 (breast), MDA-MB-231 (breast) (T. Mosmann, J. Immunol. Meth., 1983, 65, 55-63). The cells were cultured at 37° C. in RMPI1640 medium supplemented with 10% fetal bovine serum, 50 IU/mL penicillin, and 50 μg/mL streptomycin in a 5% CO2 incubator. All cells were sub-cultured 3 times/week by trypsinisation. Viable cells were seeded and allowed to adhere for 12 h before a test drug was added in 96-well plates at an initial density of 1.0×10^5 cells/mL. Tumor cell lines were separately exposed to various concentrations of the tested compounds followed by incubation at a temperature of 37° C. during 96 hours inside a medium of fresh RMPI 1640. Cells were subsequently incubated at 37° C. using MTT at 0.5 mg/mL during 4 hours. After removal of supernatant, formazan crystals were dissolved in isopropanol and the optical density was measured at 570 nm. CX-4945 was used as a positive control.

MDA-MB-231 (breast) = experiment: In vitro cytotoxic activity MTT assay, MDA-MB-231; assay type: cell-based; conditions: Homo sapiens, cells exposed for 96 hours, 50% inhibition of cell proliferation, read-out: Cytotoxicity activity IC50, MDA-MB-231 (breast)
Protocol: as §1

MIAPaCa-2 (pancreas) = experiment: In vitro cytotoxic activity MTT assay, MIAPaCa-2; assay type: cell-based; conditions: Homo sapiens, MIA PaCa-2; cells exposed for 96 hours; 50% inhibition of cell proliferation; read-out: Cytotoxicity activity IC50, MIAPaCa-2 (pancreas)
Protocol: as §1

A375 (melanoma) = experiment: In vitro cytotoxic activity MTT assay, A375; assay type: cell-based; conditions: Homo sapiens, A-375; cells exposed for 96 hours; 50% inhibition of cell proliferation; read-out: Cytotoxicity activity IC50, A375 (melanoma)
Protocol: as §1

H1299 (lung) = experiment: In vitro cytotoxic activity MTT assay, H1299; assay type: cell-based; conditions: Homo sapiens, NCI-H1299; cells exposed for 96 hours; 50% inhibition of cell proliferation; read-out: Cytotoxicity activity IC50, H1299 (lung)
Protocol: as §1

MCF7 (breast) = experiment: In vitro cytotoxic activity MTT assay, MCF7; assay type: cell-based; conditions: Homo sapiens, cells exposed for 96 hours, 50% inhibition of cell proliferation, read-out: Cytotoxicity activity IC50, MCF7 (breast)
Protocol: as §1

recombinant human CK2 = biological target: T1, recombinant human CK2 (Homo sapiens, UniProt P68400); experiment: CK2 Kinase Assay (33P-ATP, substrate peptide RRRDDDSDDD); assay type: biochemical; conditions: final ATP concentration 15 μM; 10 min at 30° C.; eight concentrations; read-out: protein kinase CK2 IC50
T1 construct: purchased Millipore
Protocol: CK2 Kinase Assay was conducted using the protocol as described in Pierre F. et al; J. Med. Chem. 2011, 54, 635-654. The tested compounds in aqueous solution were added at a volume of 10 μL to a reaction mixture comprising 10 μL of assay dilution buffer (ADB; 20 mM MOPS, pH 7.2, 25 mM β-glycerol phosphate, 5 mM EGTA, 1 mM sodium orthovanadate, and 1 mM dithiothreitol), 10 μL of substrate peptide (RRRDDDSDDD, dissolved in ADB at a concentration of 1 mM), 10 μL of recombinant human CK2 (RRββ-holoenzyme, 25 ng dissolved in ADB; Millipore). Reactions were initiated by the addition of 10 μL of ATP solution (90%75 mMMgCl2, 75 µM ATP (final ATP concentration: 15 μM) dissolved in ADB; 10% [γ-33P] ATP (stock 1 mCi/100 μL; 3000 Ci/mmol (Perkin-Elmer) and maintained for 10 min at 30° C. The reactions were quenched with 100 μL of 0.75% phosphoric acid and then transferred to and filtered through a phosphor cellulose filter plate (Millipore). After washing each well five times with 0.75% phosphoric acid, the plate was dried under vacuum for 5 min and, following the addition of 15 μL of scintillation fluid to each well, the residual radioactivity was measured using a Wallac luminescence counter. The IC50 values were derived from eight concentrations of test inhibitors.

PC3 (prostate) = experiment: In vitro cytotoxic activity MTT assay, PC3; assay type: cell-based; conditions: Homo sapiens; cells exposed for 96 hours; 50% inhibition of cell proliferation; read-out: Cytotoxicity activity IC50, PC3 (prostate)
Protocol: as §1

HL60 (leukemia) = experiment: In vitro cytotoxic activity MTT assay, HL60; assay type: cell-based; conditions: Homo sapiens, HL-60; cells exposed for 96 hours; 50% inhibition of cell proliferation; read-out: Cytotoxicity activity IC50, HL60 (leukemia)
Protocol: as §1

T1 sequence (P68400 whole entry): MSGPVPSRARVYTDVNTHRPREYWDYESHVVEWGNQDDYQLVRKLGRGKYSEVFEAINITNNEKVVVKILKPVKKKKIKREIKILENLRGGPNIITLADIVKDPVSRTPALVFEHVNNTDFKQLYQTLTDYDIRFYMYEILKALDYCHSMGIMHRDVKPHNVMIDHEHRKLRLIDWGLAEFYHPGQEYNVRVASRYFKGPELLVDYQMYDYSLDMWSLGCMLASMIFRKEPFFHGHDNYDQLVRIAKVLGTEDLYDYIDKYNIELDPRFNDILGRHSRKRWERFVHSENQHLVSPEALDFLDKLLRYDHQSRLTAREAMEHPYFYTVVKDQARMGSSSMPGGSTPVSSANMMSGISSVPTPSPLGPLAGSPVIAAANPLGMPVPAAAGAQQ
T1 sequence (P67870 whole entry partner): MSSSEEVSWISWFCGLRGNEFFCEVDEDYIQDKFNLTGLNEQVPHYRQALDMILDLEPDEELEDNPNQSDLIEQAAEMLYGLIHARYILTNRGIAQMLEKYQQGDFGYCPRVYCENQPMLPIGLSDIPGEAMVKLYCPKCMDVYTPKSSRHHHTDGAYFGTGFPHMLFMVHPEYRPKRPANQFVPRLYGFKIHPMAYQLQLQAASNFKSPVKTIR

IC50 (recombinant human CK2): 100 µM
SMILES: Clc1cccc(Nc2c3cnccc3nc3c2nn2ccncc32)c1 [Compound (1), N-(3-chlorophenyl)pyrazino[1′,2′:1,5]pyrazolo[4,3-b][1,6]naphthyridin-7-amine]
IC50 (HCT116 (colon)): 1.7 µM | IC50 (MDA-MB-231 (breast)): 5.3 µM | IC50 (MIAPaCa-2 (pancreas)): 1.1 µM | IC50 (A375 (melanoma)): 3.6 µM | IC50 (H1299 (lung)): 2.5 µM | IC50 (MCF7 (breast)): 6.1 µM | IC50 (PC3 (prostate)): 1.4 µM | IC50 (HL60 (leukemia)): 2.9 µM

— US12129259B1, “Pyrazino[1′,2′:1,5]pyrazolo[4,3-b][1,6]naphthyridines compounds as CK2 inhibitors” (KING FAISAL UNIVERSITY, priority 2023, dated 2024)
